In patent US9468627B2, “Slow-release formulations of 5-hydroxytryptophan as an adjunct to pro-serotonergic therapies” (Duke University, priority 2010, dated 2016):
“Also recorded” adds a separate entry of the source.

Columns and labels:
[1] = HPLC pilot stability of 5-HTP in water; format: physicochemical; conditions: H2O at RT, HPLC pilot experiments
[2] = immediate-release oral 5-HTP; cited from earlier work
[3] = Shindo et al. 1977; cited from earlier work
[4] = cited from earlier work
[5] = Side-effect and toxicity observation (body weight, drinking, diarrhea, 5-HT syndrome-like behaviors)
Description: Tph2 R439H mice (˜25 g) were treated for >3 wks with a saturating dose of FLX (155 mg/L drinking water, ˜20 mg/kg/day). Thereafter Alzet 2001 minipumps (1 μl delivered/hr) containing a 5-HTP solution (100 mg/ml, ˜100 mg/kg/day) or only vehicle was implanted using isoflurane anesthesia, allowing for swift awakening, and the mice monitored for signs of 5-HT syndrome hourly for 8 hrs and at 24 hrs. Splaying (0=absent, 1=present, 2=severe), head twitch (#/min) and signs of hyperventilation (0=absent, 1=present, 2=severe) was scored. Body weights—a general index of toxicity—were followed for 2 days prior to and 5 days after pump implantation.
METHODS: Mice on >2 w FLX (155 mg/L water, ˜20 mg/kg/d) were implanted with Alzet 2001 minipumps with vehicle (50% DMSO) or 100 mg/ml 5-HTP yielding a hourly (daily) dose of ˜4.2(100 mg)/kg for a ˜25 g mouse. Side-effect parameters were assessed between 30 min and 8 h following pump implantation under brief isoflurane anesthesia (day 1) and then daily (day 2-4). […] Diarrhea: Mice where placed individually in a cage with filter paper and the diarrhea level scored, 0-3. Tremor and splaying: Scored in home cage from 5 min videos. Temperature: Recorded by digital rectal temperature probe in lightly restrained mice. […] Statistics: Genotypes were analyses separately, with 2way RM-ANOVA or t-test as appropriate, and in the former case followed by Bonferroni post-hoc test.
Side-effects were assessed after the AM dose, day 1-4. Diarrhea: Mice were placed individually in a cage with filter paper and the diarrhea level scored, 0-3, 0-15 min after injection. Tremor, splaying and head-twitch: Scored in home cage from 5 min videos, 25-30 min after injection. Temperature: Recorded by digital rectal temperature probe in lightly restrained mice 30 min after injection. […] Statistics: Genotypes were analyzed separately, with 2way RM-ANOVA or t-test where appropriate, and in the former case followed by Bonferroni post-hoc test.
METHODS: 5-HTP (2 mg/L) was dissolved in (1 mg/L) saccharin-H2O, administered in blackened bottles and changed twice weekly. […] Body weights and drinking per cage was followed throughout and 5-HTP consumed estimated here from.

[6] = system: extracellular serotonin (5-HTExt); assay: 5-HT microdialysis (5-HTExt); format: in vivo, mice
Description: Mice were anesthetized by ketamine/xylazine (100 and 10 mg kg^−1, respectively, in saline, i.p) and a guide cannula (CMA7, CMA Microdialysis, Chelmsford, Mass., USA) was stereotactically implanted into the frontal cortex (AP: 2.3 mm, ML: 0.3 mm, DV: 0.7 mm), hippocampus (AP: −3.3 mm, ML: 3.0 mm, DV: 1.5 mm) or lateral ventricle (AP: 0.3 mm; ML: 0.9 mm; DV: 2.0 mm) according to the atlas by Franklin and Paxinos (see, e.g., Franklin, K. and Paxinos, G. The Mouse Brain in Stereotaxic Coordinates. Academic Press: San Diego, 1997) and fixed in place with two anchor screws (CMA) and carboxylate dental cement (CMA). Operated mice were singly housed, treated with antibiotics (1.2 mg sulfamethoxazole ml^−1 and 0.24 mg trimethoprim ml^−1) in the drinking water and allowed to recover 48-96 h post-surgery.
The microdialysis probe was inserted into the guide cannula approximately 16 h before the start of sample collection to allow for the stabilization of 5-HTExt levels. […] Dialysates were analyzed off-line by high-performance liquid chromatography-electrochemical detection (HPLC-EC) for 5-HT, 5-HIAA, 3,4-dihydroxyphenylacetic acid and homovanillic acid, or by the SymDAQ HPLC-tandem-mass spectrometry technology for simultaneous determination of monoamines and amino acids.
METHODS: 5-HT Microdialysis 5-HTP SR. […] 5-HTExt in dialysates was determined by HPLC-EC. […]

N[C@@H](Cc1c[nH]c2ccc(O)cc12)C(=O)O [5-HTP, 5-hydroxytryptophan]
stability in H2O [1]: stable for weeks
T1/2 [2]: 2 to 3 h
Tmax [2]: 1 to 2 h
first-pass metabolism in the intestine [3]: ~50%
antidepressant effect (HAMD) at endpoint ([4]; Alino et al.: 30 inpatients, nialamid 300 mg + 5-HTP 300 mg, two weeks, double-blind): significantly better than nialamide alone
antidepressant effect (HAMD) versus clomipramine + placebo ([4]; Nardini et al.: 26 inpatients, clomipramine 50 mg + 5-HTP 300 mg, four weeks, double-blind): 5-HTP enhanced clomipramines effect
patients going into remission ([4]; van Hiele: 99 chronic treatment resistant out-patients, mostly on TCAs, add-on 5-HTP ~200 mg + carbidopa, open label): Forty-three
side effects ([4]; van Hiele: add-on 5-HTP ~200 mg + carbidopa, severity greatly decreased with enteric coated capsules): nausea, vomiting and diarrhea
patients improved ([4]; van Praag: 7 chronic treatment resistant out-patients, clomipramine 50 mg + 5-HTP ~2-400 mg + PDI MK 486): Four
drinking ([5]; 5-HTP 2 mg/ml and 4 mg/ml in drinking water): Decreased drinking
body weight ([5]; 5-HTP 4 mg/ml in drinking water): Body weight decrease
5-HT syndrome-like behavior ([5]; acute 5-HTP bolus 80 mg/kg i.p., add-on to existing FLX ≈18 mg/kg/day): resulted in 5-HT syndrome-like behavior; also recorded: causes 5-HT syndrome; also recorded: Serotonin syndrome-like behavior was observed
diarrhea, malaise, gastrointestinal side effects ([5]; bolus injection 5-HTP 120 mg/kg i.p.): caused gastrointestinal side effects; also recorded: caused diarrhea and obvious malaise
diarrhea, malaise, gastrointestinal side effects ([5]; continuous 5-HTP in drinking water 4 mg/ml): No diarrhea and no obvious malaise; also recorded: did not result in gastrointestinal side effects
drinking ([5]; higher 5-HTP concentrations in drinking water, in pilots): inhibited drinking
toxicity (weights, head twitches, diarrhea) ([5]; oral 5-HTP ≈200 mg/kg/day, no carbidopa, add-on to existing fluoxetine ≈18 mg/kg/day): No indication of toxicity; also recorded: not toxic and does not result in side effects

CNCCC(Oc1ccc(C(F)(F)F)cc1)c1ccccc1 (stereo not shown) [FLX, fluoxetine]
5-HTExt response to chronic FLX ([6]; wild-type mice, FLX ≈18 mg/kg/day): robust increase
effect of FLX on 5-HTP-induced diarrhea (peri-rectal fecal smearing) ([5]; FLX ≈18 mg/kg/day, 5-HTP bolus 80 mg/kg i.p., not rigorously tested): seems to decrease diarrhea induced by 5-HTP; also recorded: appeared to lessen 5-HTP-induced diarrhea

CCCN(CCC)C1CCc2cccc(O)c2C1 (stereo not shown) [8-OH-DPAT]
decrease of 5-HTExt ([6]; 8-OH-DPAT 1 mg/kg i.p.): approximately 50%
